Data published in PMC12261321, “Inhibitors of the Bacterioferritin Ferredoxin Complex Dysregulate Iron Homeostasis and Kill and Biofilm-Embedded Cells” (ACS Infectious Diseases, 2025).
Values joined by “and” are separate entries in the source; they are usually repeats but may differ in a detail not shown here. Equal entries are not always repeated.

How the values were obtained:
A. baumannii 5075 [1] = experiment: Time kill assays; type: cell-based; settings: for rate of killing: each agent at its MIC
Description: dissolved in DMSO, such that the resultant solution had the highest concentration of compound or antibiotic tested and 1.5% DMSO. To carry out the serial dilution from the highest compound concentration, a 150 μ L solution of higher concentration compound or antibiotic was mixed with 150 μ L of cell suspension containing 1.5% DMSO in the wells of a 96 well plate.
Th e 96 well plate was in cubated for 20 hat 35 °C with continuous orbital shaking (205 cpm) in an Epoch2 microplate reader (BioTek), monitoring the growth by […]
following the OD600. […]
Time Kill Assays. Time-kill assays were performed with A. baumannii 507 5 by the broth macro- dilution method in M63- medium containing 1.5% DMSO. An overnight culture was diluted to approximately 5 x10^5 CFU/mL in fresh M63 media. The test solutions were prepared by adding compound (KM-5- 35, or KM-5- 25) dissolved in DMSO to 5 mL of diluted cell suspension to yield a solution of the desired compound concentration and 1.5% DMSO, or by the addition of antibiotic dissolved in water and a small volume of DMSO to produce the desired […]
antibiotic concentration and 1.5% DMSO. Controls containing the diluted cell suspension, 1.5% DMSO but no test compounds were also prepared. […]
800 µL of the suspension was lay ered onto 700 µL of chilled silicon oil contained in 1.5 mL Eppendo rf tubes and then centrifuged at 4 °C ( 900 x g) for 10 min, then again at 16,200 x g for 5 min to allow pass ag e of the cell suspension through the silicon oil layer. The aqueous and oil layers were removed, and the cell pellet was washed twice in PBS (800 μ L), each time transferring the cell suspension to a new Eppendorf tube and then centrifuging at 16,200 x g. The cell pellet was lysed in 800 µL methanol by vortexing followed by 10 min incubationat room temperatur e. The lysate suspension was pelleted, the supernatant was transferred to a new Eppendorf tube and then placed into a vacuum concentrator (Eppendorf 5301 Vacufuge) to evaporate the methanol (4 h). The dried

A. baumannii 5075 [2] = experiment: Checkerboard assay; type: cell-based
Description: To carry out the serial dilution from the highest compound concentration, a 150 μ L solution of higher concentration compound or antibiotic was mixed with 150 μ L of cell suspension containing […] Th e 96 well plate was in cubated for 20 hat 35 °C with continuous orbital shaking (205 cpm) in an Epoch2 microplate reader (BioTek), monitoring the growth by following the OD600. […] All assays were p erfo rmed in three biological replicates, each with three […] replicates. Checkerboard Assay. […] CFU/mL. […] in the vertical and hori zontal direction, respectivel y. Bacterial suspensions were […] escrib ed above fo r the MIC determination and added to the plates. […] The 96-well […] cubated for 20 h at 35 °C with continuous orbital shaking (205 cpm) in an Epoch2 microplate reader (BioTek), monitoring the growth by following the OD600. The MIC values of inhibitor and antibiotic were obtained from the corresponding row or column which contained only one component, whereas the remaining rows and columns were utilized for calculating the fractional inhibitory concentration index (FIC) with the aid of equation […] = […]2 Time Kill Assays. Time-kill assays were performed with A. baumannii 507 5 by the broth macro- dilution method […] An overnight culture was diluted to approximately 5 x10^5 CFU/mL in fresh […] media. […] DMSO, or by the addition of antibiotic dissolved in water and a small volume of DMSO to produce the desired S7

SMILES | time kill outcome (A. baumannii 5075 [1]; compound at 1 × MIC) | time kill outcome (A. baumannii 5075 [1]; compound at 1.5 × MIC (limit of aqueous solubility)) | reduction of viable cells (CFU/mL) relative to the inoculum (A. baumannii 5075 [1]; compound at the MIC) | time to approximately 3log10 reduction of viable cells (A. baumannii 5075 [1]; compound at the MIC) | rate of killing (A. baumannii 5075 [1]) | FIC (A. baumannii 5075 [2]; KM-5–25 with colistin, 5075 (Figure S3)) | FIC (A. baumannii 5075 [2]; KM-5–25 with imipenem, 5075 (Figure S3)) | FIC (A. baumannii 5075 [2]; KM-5–35 with ceftazidime, 5075) | FIC (A. baumannii 5075 [2]; KM-5–35 with ciprofloxacin, 5075) | FIC (A. baumannii 5075 [2]; KM-5–35 with meropenem, 5075) | FIC (A. baumannii 5075 [2]; KM-5–35 with tobramycin, 5075) | MIC alone (A. baumannii 5075 [2]; agent alone, 5075, KM-5–35 14 μg/mL = 40 μM) | MIC of KM-5–35 in combination (A. baumannii 5075 [2]; in combination with ceftazidime, 5075) | MIC of KM-5–35 in combination (A. baumannii 5075 [2]; in combination with ciprofloxacin, 5075) | MIC of KM-5–35 in combination (A. baumannii 5075 [2]; in combination with imipenem, 5075) | MIC of KM-5–35 in combination (A. baumannii 5075 [2]; in combination with tobramycin, 5075)
O=C1NC(=O)c2c(NCc3cc(Cl)ccc3O)cccc21 [KM-5-25, 4-((5-Chloro-2-hydroxybenzyl)amino)isoindoline-1,3-dione] | cell growth is observed at later hours | bactericidal | approximately 3 log10 | approximately 3 h | slower than that observed with KM-5–35 | 0.36 and 0.38 | 0.63 | – | – | – | – | – | – | – | – | –
O=C1NC(=O)c2c(NCc3cc(Br)ccc3O)cccc21 [KM-5-35, 4-((5-Bromo-2-hydroxybenzyl)amino)isoindoline-1,3-dione] | bactericidal | – | > 3 log10 | – | faster than meropenem but slower than colistin | – | – | 0.50 | 0.53 | 0.50 | 0.50 | 14 µg/mL | 7 µg/mL | 7 µg/mL | 3.5 µg/mL | 7 µg/mL
